Results: US20250353853A1, “FLAVIVIRUS INHIBITORS” (IRBM S.P.A., priority 2022, published 2025)
Like-named read-outs stand apart in the source and are kept apart here.

Columns and labels:
[1] = target: West Nile Virus (WNV) NS2B-NS3 protease (West Nile virus (WNV), UniProt P06935); assay: WNV Protease Inhibition Assay; type: biochemical
Excerpt: WNV Protease Inhibition Assay

[2] = test system: ZIKV replicon in Vero cells; assay: ZIKV Replication Inhibition Assay (replicon, NanoLuc); conditions: Zika virus, Vero, 72 h, read-out: Zika Replicon EC50
[3] = 2 nM protease, 10 μM pERTKR-AMC substrate, read-out: WNV Protease IC50

West Nile Virus (WNV) NS2B-NS3 protease, sequence (P06935 1502-1679 limits assumed): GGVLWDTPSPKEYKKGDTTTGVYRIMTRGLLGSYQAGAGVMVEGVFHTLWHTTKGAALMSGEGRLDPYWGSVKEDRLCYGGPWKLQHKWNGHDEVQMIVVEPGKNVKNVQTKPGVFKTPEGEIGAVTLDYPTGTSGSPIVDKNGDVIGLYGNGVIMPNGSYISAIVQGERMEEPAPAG
West Nile Virus (WNV) NS2B-NS3 protease, sequence (P06935 1371-1501 partner limits assumed): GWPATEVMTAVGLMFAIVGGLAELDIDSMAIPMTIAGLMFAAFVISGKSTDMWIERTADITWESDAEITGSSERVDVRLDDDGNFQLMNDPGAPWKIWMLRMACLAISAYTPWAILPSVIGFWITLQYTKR

SMILES	IC50 [1, 3]	EC50 [2]	IC50 [1]
O=C([N-]c1c[n+](Cc2ccc(Br)cc2)no1)Nc1cccc(C(F)(F)F)c1 [Example 19, (3-(4-bromobenzyl)-1,2,3-oxadiazol-3-ium-5-yl)((3-(trifluoromethyl)phenyl)carbamoyl)amide]	< 100 nM	100 to 1000 nM	
C[C@H](c1ccc(Br)cc1)[n+]1cc([N-]C(=O)Nc2cccc(C(F)(F)F)c2)on1 [Example 68, (R)-(3-(1-(4-bromophenyl)ethyl)-1,2,3-oxadiazol-3-ium-5-yl)((3-(trifluoromethyl)phenyl)carbamoyl)amide]		1000 to 20000 nM	1000 to 20000 nM
O=C([N-]c1c[n+](Cc2ccc(-c3cnoc3)cc2)no1)Nc1cccc(C(F)(F)F)c1 [Example 48, (3-(4-(isoxazol-4-yl)benzyl)-1,2,3-oxadiazol-3-ium-5-yl)((3-(trifluoromethyl)phenyl)carbamoyl)amide]		100 to 1000 nM	100 to 1000 nM
COc1ncc(-c2ccc(C[n+]3cc([N-]C(=O)Nc4cccc(C(F)(F)F)c4)on3)cc2)cn1 [Example 41, (3-(4-(2-methoxypyrimidin-5-yl)benzyl)-1,2,3-oxadiazol-3-ium-5-yl)((3-(trifluoromethyl)phenyl)carbamoyl)amide]	< 100 nM	100 to 1000 nM	
O=C([N-]c1c[n+](Cc2ccc(-c3cncnc3)cn2)no1)Nc1cncc(C(F)(F)F)c1 [Example 125, (3-((5-(pyrimidin-5-yl)pyridin-2-yl)methyl)-1,2,3-oxadiazol-3-ium-5-yl)((5-(trifluoromethyl)pyridin-3-yl)carbamoyl)amide]		100 to 1000 nM	100 to 1000 nM
Cc1ncnc(C)c1-c1ccc([C@H](C)[n+]2cc([N-]C(=O)Nc3ccnc(C(F)(F)F)c3)on2)cc1 [Example 190, (S)-(3-(1-(4-(4,6-dimethylpyrimidin-5-yl)phenyl)ethyl)-1,2,3-oxadiazol-3-ium-5-yl)((2-(trifluoromethyl)pyridin-4-yl)carbamoyl)amide]		100 to 1000 nM	< 100 nM
COc1ncc(-c2ccc(C[n+]3cc([N-]C(=O)Nc4cccc(C(F)(F)F)c4)on3)nc2)c(C)n1 [Example 134, (3-((5-(2-methoxy-4-methylpyrimidin-5-yl)pyridin-2-yl)methyl)-1,2,3-oxadiazol-3-ium-5-yl)((3-(trifluoromethyl)phenyl)carbamoyl)amide]	< 100 nM	< 100 nM	
Cn1cc(-c2cccc(C[n+]3cc([N-]C(=O)Nc4cccc(C(F)(F)F)c4)on3)c2)cn1 [Example 52, (3-(3-(1-methyl-1H-pyrazol-4-yl)benzyl)-1,2,3-oxadiazol-3-ium-5-yl)((3-(trifluoromethyl)phenyl)carbamoyl)amide]		100 to 1000 nM	100 to 1000 nM
Cc1noc(C)c1-c1ccc(C[n+]2cc([N-]C(=O)Nc3cncc(C(F)(F)F)c3)on2)nc1 [Example 126, (3-((5-(3,5-dimethylisoxazol-4-yl)pyridin-2-yl)methyl)-1,2,3-oxadiazol-3-ium-5-yl)((5-(trifluoromethyl)pyridin-3-yl)carbamoyl)amide]	< 100 nM	< 100 nM	
O=C([N-]c1c[n+](Cc2ccc(-c3cnccn3)cc2)no1)Nc1cccc(C(F)(F)F)c1 [Example 42, (3-(4-(pyrazin-2-yl)benzyl)-1,2,3-oxadiazol-3-ium-5-yl)((3-(trifluoromethyl)phenyl)carbamoyl)amide]		100 to 1000 nM	100 to 1000 nM
O=C([N-]c1c[n+](Cc2ccc(-c3cncnc3C(F)(F)F)cn2)no1)Nc1cccc(C(F)(F)F)c1 [Example 131, ((3-(trifluoromethyl)phenyl)carbamoyl)(3-((5-(4-(trifluoromethyl)pyrimidin-5-yl)pyridin-2-yl)methyl)-1,2,3-oxadiazol-3-ium-5-yl)amide]	< 100 nM	< 100 nM	
COc1ncnc(C)c1-c1ccc(C[n+]2cc([N-]C(=O)Nc3cncc(C(F)(F)F)c3)on2)nc1 [Example 136, (3-((5-(4-methoxy-6-methylpyrimidin-5-yl)pyridin-2-yl)methyl)-1,2,3-oxadiazol-3-ium-5-yl)((5-(trifluoromethyl)pyridin-3-yl)carbamoyl)amide]		100 to 1000 nM	100 to 1000 nM
O=C([N-]c1c[n+](Cc2ccc(-c3cccnc3)cc2)no1)Nc1cccc(C(F)(F)F)c1 [Example 22, (3-(4-(pyridin-3-yl)benzyl)-1,2,3-oxadiazol-3-ium-5-yl)((3-(trifluoromethyl)phenyl)carbamoyl)amide]		100 to 1000 nM	100 to 1000 nM
O=C([N-]c1c[n+](Cc2ccc(I)cc2)no1)Nc1cncc(C(F)(F)F)c1 [Example 55, (3-(4-iodobenzyl)-1,2,3-oxadiazol-3-ium-5-yl)((5-(trifluoromethyl)pyridin-3-yl)carbamoyl)amide]		100 to 1000 nM	100 to 1000 nM
O=C([N-]c1c[n+](Cc2ccc(-c3cncnc3C(F)(F)F)cn2)no1)Nc1ccnc(C(F)(F)F)c1 [Example 177, ((2-(trifluoromethyl)pyridin-4-yl)carbamoyl)(3-((5-(4-(trifluoromethyl)pyrimidin-5-yl)pyridin-2-yl)methyl)-1,2,3-oxadiazol-3-ium-5-yl)amide]	< 100 nM	100 to 1000 nM	
Cc1noc(C)c1-c1cnc(C[n+]2cc([N-]C(=O)Nc3cccc(C(F)(F)F)c3)on2)nc1 [Example 167, (3-((5-(3,5-dimethylisoxazol-4-yl)pyrimidin-2-yl)methyl)-1,2,3-oxadiazol-3-ium-5-yl)((3-(trifluoromethyl)phenyl)carbamoyl)amide]		< 100 nM	100 to 1000 nM
COc1ncnc(C)c1-c1ccc(C[n+]2cc([N-]C(=O)Nc3cccc(C(F)(F)F)c3)on2)nc1 [Example 135, (3-((5-(4-methoxy-6-methylpyrimidin-5-yl)pyridin-2-yl)methyl)-1,2,3-oxadiazol-3-ium-5-yl)((3-(trifluoromethyl)phenyl)carbamoyl)amide]	< 100 nM	< 100 nM	
C[C@@H](c1ccc(-c2cncnc2)cc1)[n+]1cc([N-]C(=O)Nc2cccc(C(F)(F)F)c2)on1 [Example 74, (S)-(3-(1-(4-(pyrimidin-5-yl)phenyl)ethyl)-1,2,3-oxadiazol-3-ium-5-yl)((3-(trifluoromethyl)phenyl)carbamoyl)amide]	< 100 nM	100 to 1000 nM	
C[C@H](c1ccc(-c2cncnc2)cc1)[n+]1cc([N-]C(=O)Nc2cccc(C(F)(F)F)c2)on1 [Example 72, (R)-(3-(1-(4-(pyrimidin-5-yl)phenyl)ethyl)-1,2,3-oxadiazol-3-ium-5-yl)((3-(trifluoromethyl)phenyl)carbamoyl)amide]		100 to 1000 nM	100 to 1000 nM
O=C([N-]c1c[n+](C(c2ccccc2)C(F)(F)F)no1)Nc1cccc(C(F)(F)F)c1 (stereo not shown) [Example 44, (3-(2,2,2-trifluoro-1-phenylethyl)-1,2,3-oxadiazol-3-ium-5-yl)((3-(trifluoromethyl)phenyl)carbamoyl)amide]		> 20000 nM	1000 to 20000 nM
Cc1ncccc1-c1ccc(C[n+]2cc([N-]C(=O)Nc3cncc(C(F)(F)F)c3)on2)nc1 [Example 141, (3-((2′-methyl-[3,3′-bipyridin]-6-yl)methyl)-1,2,3-oxadiazol-3-ium-5-yl)((5-(trifluoromethyl)pyridin-3-yl)carbamoyl)amide]	< 100 nM	100 to 1000 nM	
O=C([N-]c1c[n+](Cc2ccc(-c3ccnnc3)cn2)no1)Nc1cccc(C(F)(F)F)c1 [Example 160, (3-((5-(pyridazin-4-yl)pyridin-2-yl)methyl)-1,2,3-oxadiazol-3-ium-5-yl)((3-(trifluoromethyl)phenyl)carbamoyl)amide]	< 100 nM	100 to 1000 nM	
Cc1ncnc(C)c1-c1ccc(C[n+]2cc([N-]C(=O)Nc3cccc(C(F)(F)F)c3)on2)nc1 [Example 130, (3-((5-(4,6-dimethylpyrimidin-5-yl)pyridin-2-yl)methyl)-1,2,3-oxadiazol-3-ium-5-yl)((3-(trifluoromethyl)phenyl)carbamoyl)amide]	< 100 nM	< 100 nM	
COc1ncncc1-c1ccc(C[n+]2cc([N-]C(=O)Nc3cccc(C(F)(F)F)c3)on2)cc1 [Example 62, (3-(4-(4-methoxypyrimidin-5-yl)benzyl)-1,2,3-oxadiazol-3-ium-5-yl)((3-(trifluoromethyl)phenyl)carbamoyl)amide]	< 100 nM	100 to 1000 nM	
O=C([N-]c1c[n+](Cc2cccc(-c3cncnc3)c2)no1)Nc1cccc(C(F)(F)F)c1 [Example 50, (3-(3-(Pyrimidin-5-yl)benzyl)-1,2,3-oxadiazol-3-ium-5-yl)((3-(trifluoromethyl)phenyl)carbamoyl)amide]		100 to 1000 nM	100 to 1000 nM
O=C([N-]c1c[n+](Cc2ccc(-c3cccnc3Cl)cn2)no1)Nc1cccc(C(F)(F)F)c1 [Example 172, (3-((2′-chloro-[3,3′-bipyridin]-6-yl)methyl)-1,2,3-oxadiazol-3-ium-5-yl)((3-(trifluoromethyl)phenyl)carbamoyl)amide]		< 100 nM	100 to 1000 nM
O=C([N-]c1c[n+](Cc2ccc(-c3cncnc3Cl)cn2)no1)Nc1cccc(C(F)(F)F)c1 [Example 179, (3-((5-(4-chloropyrimidin-5-yl)pyridin-2-yl)methyl)-1,2,3-oxadiazol-3-ium-5-yl)((3-(trifluoromethyl)phenyl)carbamoyl)amide]	< 100 nM	1000 to 20000 nM	
O=C([N-]c1c[n+](Cc2ccc(-c3ccncc3)cc2)no1)Nc1cncc(C(F)(F)F)c1 [Example 67, (3-(4-(pyridin-4-yl)benzyl)-1,2,3-oxadiazol-3-ium-5-yl)((5-(trifluoromethyl)pyridin-3-yl)carbamoyl)amide]		100 to 1000 nM	100 to 1000 nM
Cc1cnn(C)c1-c1ccc(C[n+]2cc([N-]C(=O)Nc3cccc(C(F)(F)F)c3)on2)nc1 [Example 165, (3-((5-(1,4-dimethyl-1H-pyrazol-5-yl)pyridin-2-yl)methyl)-1,2,3-oxadiazol-3-ium-5-yl)((3-(trifluoromethyl)phenyl)carbamoyl)amide]		< 100 nM	100 to 1000 nM
